Each structure is given as a SMILES string.

Here are results for five molecules from the supplement of paper PMC10307832.

The test system of the first experiment is NCI-H650. Description: relative viability (nuclei count vs DMSO), 5 days (fraction); higher = more cells survive. The settings on record: first compound 8 µM. The method in brief:
(§1)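 Dosing by pin tool came one day after lung cancer cell lines were seeded in 1536-well plates, using either one drug or a fixed anchor-drug dose plus five library-drug doses (not always all listed) in √10 steps. After 5 days, nuclei were counted on 4× images. Relative viability is treated-well nuclei count divided by vehicle-well nuclei count, and values are medians of duplicate plates.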
Regarding `CCCCCCCCCCCC1=C(O)C(=O)C=C(O)C1=O` [Embelin] + COc1cccc2cc(-c3nc([C@H]4CC[C@H](C(=O)O)CC4)n4ncnc(N)c34)[nH]c12 [OSI-027] (partner 0.5 µM), the relative viability came to 0.549.

As for `CCCCCCCCCCCC1=C(O)C(=O)C=C(O)C1=O` [Embelin] + Nc1nc2[nH]cc(CCc3ccc(C(=O)N[C@@H](CCC(=O)O)C(=O)O)cc3)c2c(=O)[nH]1 [Pemetrexed] (partner 0.2 µM), the relative viability is 0.954.

The subject of a further experiment is SW 900. The description is as above. Conditions: first compound 0.08 µM. The method in brief: as §1
On to `CCCCCCCCCCCC1=C(O)C(=O)C=C(O)C1=O` [Embelin] + Cc1cc(Nc2cc(N3CCN(C)CC3)nc(Sc3ccc(NC(=O)C4CC4)cc3)n2)n[nH]1 [Tozasertib] (partner 0.1 µM), for which the relative viability worked out at 0.438.

`CCCCCCCCCCCC1=C(O)C(=O)C=C(O)C1=O` [Embelin] + CC(=O)Nc1cccc(-n2c(=O)n(C3CC3)c(=O)c3c(Nc4ccc(I)cc4F)n(C)c(=O)c(C)c32)c1 [Trametinib] (partner 0.02 µM): the relative viability came out at 0.779.

Regarding `CCCCCCCCCCCC1=C(O)C(=O)C=C(O)C1=O` [Embelin] + Nc1ncn([C@H]2C[C@H](O)[C@@H](CO)O2)c(=O)n1 [Decitabine] (partner 2 µM), the relative viability came out at 0.449.

`CCCCCCCCCCCC1=C(O)C(=O)C=C(O)C1=O` [Embelin] + COc1cccc2cc(-c3nc([C@H]4CC[C@H](C(=O)O)CC4)n4ncnc(N)c34)[nH]c12 [OSI-027] (partner 0.5 µM) gave a relative viability of 0.496.

`CCCCCCCCCCCC1=C(O)C(=O)C=C(O)C1=O` [Embelin] + Nc1nc2[nH]cc(CCc3ccc(C(=O)N[C@@H](CCC(=O)O)C(=O)O)cc3)c2c(=O)[nH]1 [Pemetrexed] (partner 0.2 µM) gave a relative viability of 0.495.

The experiment is the same for the next values; noted with them: first compound 0.8 µM.
For `CCCCCCCCCCCC1=C(O)C(=O)C=C(O)C1=O` [Embelin] + Cc1cc(Nc2cc(N3CCN(C)CC3)nc(Sc3ccc(NC(=O)C4CC4)cc3)n2)n[nH]1 [Tozasertib] (partner 0.1 µM), the relative viability worked out at 0.672.

In the case of `CCCCCCCCCCCC1=C(O)C(=O)C=C(O)C1=O` [Embelin] + CC(=O)Nc1cccc(-n2c(=O)n(C3CC3)c(=O)c3c(Nc4ccc(I)cc4F)n(C)c(=O)c(C)c32)c1 [Trametinib] (partner 0.02 µM), the relative viability came to 0.962.

In turn, `CCCCCCCCCCCC1=C(O)C(=O)C=C(O)C1=O` [Embelin] + Nc1ncn([C@H]2C[C@H](O)[C@@H](CO)O2)c(=O)n1 [Decitabine] (partner 2 µM) yielded a relative viability of 0.402.

For the molecule `CCCCCCCCCCCC1=C(O)C(=O)C=C(O)C1=O` [Embelin] + COc1cccc2cc(-c3nc([C@H]4CC[C@H](C(=O)O)CC4)n4ncnc(N)c34)[nH]c12 [OSI-027] (partner 0.5 µM), the relative viability came out at 0.541.

On to `CCCCCCCCCCCC1=C(O)C(=O)C=C(O)C1=O` [Embelin] + Nc1nc2[nH]cc(CCc3ccc(C(=O)N[C@@H](CCC(=O)O)C(=O)O)cc3)c2c(=O)[nH]1 [Pemetrexed] (partner 0.2 µM), for which the relative viability is 0.527.

The experiment is the same for the next values; noted with them: first compound 2.53 µM.
The molecule `CCCCCCCCCCCC1=C(O)C(=O)C=C(O)C1=O` [Embelin] + Cc1cc(Nc2cc(N3CCN(C)CC3)nc(Sc3ccc(NC(=O)C4CC4)cc3)n2)n[nH]1 [Tozasertib] (partner 0.1 µM) displayed a relative viability of 0.511.

On to `CCCCCCCCCCCC1=C(O)C(=O)C=C(O)C1=O` [Embelin] + CC(=O)Nc1cccc(-n2c(=O)n(C3CC3)c(=O)c3c(Nc4ccc(I)cc4F)n(C)c(=O)c(C)c32)c1 [Trametinib] (partner 0.02 µM), for which the relative viability came to 0.781.

Consider `CCCCCCCCCCCC1=C(O)C(=O)C=C(O)C1=O` [Embelin] + Nc1ncn([C@H]2C[C@H](O)[C@@H](CO)O2)c(=O)n1 [Decitabine] (partner 2 µM), for which the relative viability was determined as 0.466.

`CCCCCCCCCCCC1=C(O)C(=O)C=C(O)C1=O` [Embelin] + COc1cccc2cc(-c3nc([C@H]4CC[C@H](C(=O)O)CC4)n4ncnc(N)c34)[nH]c12 [OSI-027] (partner 0.5 µM) returned a relative viability of 0.553.

For the molecule `CCCCCCCCCCCC1=C(O)C(=O)C=C(O)C1=O` [Embelin] + Nc1nc2[nH]cc(CCc3ccc(C(=O)N[C@@H](CCC(=O)O)C(=O)O)cc3)c2c(=O)[nH]1 [Pemetrexed] (partner 0.2 µM), the relative viability was 0.52.

The experiment is the same for the next values; noted with them: first compound 8 µM.
`CCCCCCCCCCCC1=C(O)C(=O)C=C(O)C1=O` [Embelin] + Cc1cc(Nc2cc(N3CCN(C)CC3)nc(Sc3ccc(NC(=O)C4CC4)cc3)n2)n[nH]1 [Tozasertib] (partner 0.1 µM) displayed a relative viability of 0.718.

`CCCCCCCCCCCC1=C(O)C(=O)C=C(O)C1=O` [Embelin] + CC(=O)Nc1cccc(-n2c(=O)n(C3CC3)c(=O)c3c(Nc4ccc(I)cc4F)n(C)c(=O)c(C)c32)c1 [Trametinib] (partner 0.02 µM) had a relative viability of 1.15.

`CCCCCCCCCCCC1=C(O)C(=O)C=C(O)C1=O` [Embelin] + Nc1ncn([C@H]2C[C@H](O)[C@@H](CO)O2)c(=O)n1 [Decitabine] (partner 2 µM) yielded a relative viability of 0.454.

In turn, `CCCCCCCCCCCC1=C(O)C(=O)C=C(O)C1=O` [Embelin] + COc1cccc2cc(-c3nc([C@H]4CC[C@H](C(=O)O)CC4)n4ncnc(N)c34)[nH]c12 [OSI-027] (partner 0.5 µM) had a relative viability of 0.347.

`CCCCCCCCCCCC1=C(O)C(=O)C=C(O)C1=O` [Embelin] + Nc1nc2[nH]cc(CCc3ccc(C(=O)N[C@@H](CCC(=O)O)C(=O)O)cc3)c2c(=O)[nH]1 [Pemetrexed] (partner 0.2 µM) had a relative viability of 0.473.

Another experiment deals with NCI-H1734. Described as above. Conditions: first compound 0.08 µM. In a few lines: as §1
In turn, `CCCCCCCCCCCC1=C(O)C(=O)C=C(O)C1=O` [Embelin] + Cc1cc(Nc2cc(N3CCN(C)CC3)nc(Sc3ccc(NC(=O)C4CC4)cc3)n2)n[nH]1 [Tozasertib] (partner 0.1 µM) had a relative viability of 0.26.

As for `CCCCCCCCCCCC1=C(O)C(=O)C=C(O)C1=O` [Embelin] + CC(=O)Nc1cccc(-n2c(=O)n(C3CC3)c(=O)c3c(Nc4ccc(I)cc4F)n(C)c(=O)c(C)c32)c1 [Trametinib] (partner 0.02 µM), the relative viability came to 0.686.

`CCCCCCCCCCCC1=C(O)C(=O)C=C(O)C1=O` [Embelin] + Nc1ncn([C@H]2C[C@H](O)[C@@H](CO)O2)c(=O)n1 [Decitabine] (partner 2 µM): the relative viability worked out at 0.514.

Turning to `CCCCCCCCCCCC1=C(O)C(=O)C=C(O)C1=O` [Embelin] + COc1cccc2cc(-c3nc([C@H]4CC[C@H](C(=O)O)CC4)n4ncnc(N)c34)[nH]c12 [OSI-027] (partner 0.5 µM), the relative viability was 0.648.

In the case of `CCCCCCCCCCCC1=C(O)C(=O)C=C(O)C1=O` [Embelin] + Nc1nc2[nH]cc(CCc3ccc(C(=O)N[C@@H](CCC(=O)O)C(=O)O)cc3)c2c(=O)[nH]1 [Pemetrexed] (partner 0.2 µM), the relative viability was found to be 0.434.

Still in this experiment, the particulars now being: first compound 0.8 µM.
In turn, `CCCCCCCCCCCC1=C(O)C(=O)C=C(O)C1=O` [Embelin] + Cc1cc(Nc2cc(N3CCN(C)CC3)nc(Sc3ccc(NC(=O)C4CC4)cc3)n2)n[nH]1 [Tozasertib] (partner 0.1 µM) came in with a relative viability of 0.27.

In turn, `CCCCCCCCCCCC1=C(O)C(=O)C=C(O)C1=O` [Embelin] + CC(=O)Nc1cccc(-n2c(=O)n(C3CC3)c(=O)c3c(Nc4ccc(I)cc4F)n(C)c(=O)c(C)c32)c1 [Trametinib] (partner 0.02 µM) had a relative viability of 0.789.
